Results as given in patent publication US12110305B2, “Prodrugs of phosphonamide nucleotide analogues and their pharmaceutical use” (priority 2020, dated 2024).

test system: HIV-1 (IIIB); experiment: Antiviral (HIV) assay in MT-4 cells; type: cell-based; conditions: Human immunodeficiency virus 1, MT4, 120 h; HIV-1 IIIB in MT-4 cells, 5 days incubation, Cell Titer Glo; average of at least two independent experiments
Method: Example 104: Antiviral (HIV) Assay in MT-4 Cells
Compounds were tested in a high-throughput 384-well assay format for their ability to inhibit the replication of HIV-1 (IIIB) in MT-4 cells. Compounds were serially diluted (1:3) in DMSO on 384-well polypropylene plates and further diluted 200-fold into complete RPMI media (10% FBS, 1% P/S) using the Biotek Micro Flow and Labcyte ECHO acoustic dispenser. Each plate contained up to 8 test compounds, with negative (no drug) and positive (5 μM AZT) controls. MT-4 cells were pre-treated with 10 μL of either RPMI (mock-infected) or a fresh 1:250 dilution of HIV-1 IIIB concentrated virus stock. Infected and uninfected MT-4 cells were further diluted in complete RPMI media and added to each plate using a Micro Flow dispenser. After 5 days incubation in a humidified and temperature-controlled incubator (37° C.), Cell Titer Glo (Promega) was added to the assay plates and chemiluminescence read using an Envision plate-reader. EC50 values were defined as the compound concentration that causes a 50% decrease in luminescence signal and were calculated using a sigmoidal dose-response model to generate curve fits and are shown in Table 1.

`CCCCCCOC(=O)C(C)(C)NP(=O)(CO[C@H](C)Cn1cnc2c(N)ncnc21)NC(C)(C)C(=O)OCCCCCC` [Example 1, Dihexyl 2,2′-(((((1-(6-amino-9H-purin-9-yl)propan-2-yl)oxy)methyl)phosphoryl)bis(azanediyl))(R)-bis(2-methylpropanoate)] and `CCCCCOC(=O)C(C)(C)NP(=O)(CO[C@H](C)Cn1cnc2c(N)ncnc21)NC(C)(C)C(=O)OCCCCC` [Example 4, Dipentyl 2,2′-(((((1-(6-amino-9H-purin-9-yl)propan-2-yl)oxy)methyl)phosphoryl)bis(azanediyl))(R)-bis(2-methylpropanoate)] are within 1.5-fold of each other in EC50: 5 nM for the first, 6 nM for the second.

First: CCC(CC)COC(=O)C(C)(C)NP(=O)(CO[C@H](C)Cn1cnc2c(N)ncnc21)NC(C)(C)C(=O)OCC(CC)CC [Example 2, Bis(2-ethylbutyl) 2,2′-(((((1-(6-amino-9H-purin-9-yl)propan-2-yl)oxy)methyl)phosphoryl)bis(azanediyl))(R)-bis(2-methylpropanoate)]
Second: CCC(CC)CCOC(=O)C(C)(C)NP(=O)(CO[C@H](C)Cn1cnc2c(N)ncnc21)NC(C)(C)C(=O)OCCC(CC)CC [Example 7, Bis(3-ethylpentyl) 2,2′-(((((1-(6-amino-9H-purin-9-yl)propan-2-yl)oxy)methyl)phosphoryl)bis(azanediyl))(R)-bis(2-methylpropanoate)]
The EC50 of the first is 2.2-fold lower: 4 nM for the first, 9 nM for the second. The first is the more potent here.

Going from `C[C@H](Cn1cnc2c(N)ncnc21)OCP(=O)(NC(C)(C)C(=O)OCc1ccccc1)NC(C)(C)C(=O)OCc1ccccc1` [Example 3, Dibenzyl 2,2′-(((((1-(6-amino-9H-purin-9-yl)propan-2-yl)oxy)methyl)phosphoryl)bis(azanediyl))(R)-bis(2-methylpropanoate)] to `CCCCCCOC(=O)[C@](C)(Cc1ccccc1)NP(=O)(CO[C@H](C)Cn1cnc2c(N)ncnc21)N[C@@](C)(Cc1ccccc1)C(=O)OCCCCCC` [Example 11, Dihexyl 2,2′-((((((R)-1-(6-amino-9H-purin-9-yl)propan-2-yl)oxy)methyl)phosphoryl)bis(azanediyl))(2S,2'S)-bis(2-methyl-3-phenylpropanoate)], the EC50 rises from 10 nM to 17 nM (1.7-fold).

`C[C@H](Cn1cnc2c(N)ncnc21)OCP(=O)(NC(C)(C)C(=O)OCC(C)(C)C)NC(C)(C)C(=O)OCC(C)(C)C` [Example 5] and `C[C@H](Cn1cnc2c(N)ncnc21)OCP(=O)(NC(C)(C)C(=O)OCCC(C)(C)C)NC(C)(C)C(=O)OCCC(C)(C)C` [Example 8, Bis(3,3-dimethylbutyl) 2,2′-(((((1-(6-amino-9H-purin-9-yl)propan-2-yl)oxy)methyl)phosphoryl)bis(azanediyl))(R)-bis(2-methylpropanoate)] are the same in EC50: 5 nM for the first, 5 nM for the second.

Compared with `CC(C)CCOC(=O)C(C)(C)NP(=O)(CO[C@H](C)Cn1cnc2c(N)ncnc21)NC(C)(C)C(=O)OCCC(C)C` [Example 6, Diisopentyl 2,2′-(((((1-(6-amino-9H-purin-9-yl)propan-2-yl)oxy)methyl)phosphoryl)bis(azanediyl))(R)-bis(2-methylpropanoate)], `C[C@H](Cn1cnc2c(N)ncnc21)OCP(=O)(NC(C)(C)C(=O)OC(C)(C)C)NC(C)(C)C(=O)OC(C)(C)C` [Example 9, Di-tert-butyl 2,2′-(((((1-(6-amino-9H-purin-9-yl)propan-2-yl)oxy)methyl)phosphoryl)bis(azanediyl))(R)-bis(2-methylpropanoate)] is 84-fold higher in EC50: 2 nM for the first, 169 nM for the second. The first is the more potent here.

`CCCCCCOC(=O)[C@](C)(CC)NP(=O)(CO[C@H](C)Cn1cnc2c(N)ncnc21)N[C@@](C)(CC)C(=O)OCCCCCC` [Example 10, Dihexyl 2,2′-((((((R)-1-(6-amino-9H-purin-9-yl)propan-2-yl)oxy)methyl)phosphoryl)bis(azanediyl))(2S,2'S)-bis(2-methylbutanoate)] and `CCCCCCOC(=O)C(C)(C)NP(=O)(CO[C@H](C)Cn1cnc2c(N)ncnc21)N[C@]1(C(=O)OCCCCCC)C[C@H]1CC` (stereo partly drawn) [Example 16, Hexyl (1R,2R)-1-((((((R)-1-(6-amino-9H-purin-9-yl)propan-2-yl)oxy)methyl)((1-(hexyloxy)-2-methyl-1-oxopropan-2-yl)amino)phosphoryl)amino)-2-ethylcyclopropane-1-carboxylate] are within 1.5-fold of each other in EC50: 37 nM for the first, 35 nM for the second.

`C[C@H](Cn1cnc2c(N)ncnc21)OCP(=O)(NC(C)(C)C(=O)OCCC1CCCCC1)NC(C)(C)C(=O)OCCC1CCCCC1` [Example 14, Bis(2-cyclohexylethyl) 2,2′-(((((1-(6-amino-9H-purin-9-yl)propan-2-yl)oxy)methyl)phosphoryl)bis(azanediyl))(R)-bis(2-methylpropanoate)] and `CCCCCCOC(=O)C(C)(C)NP(=O)(CO[C@H](C)Cn1cnc2c(N)ncnc21)NC(C)(C)C(=O)O[C@H]1CC[C@H](C(F)(F)F)CC1` (stereo partly drawn) [Example 22, Hexyl 2-((((((R)-1-(6-amino-9H-purin-9-yl)propan-2-yl)oxy)methyl)((2-methyl-1-oxo-1-((trans-4-(trifluoromethyl)cyclohexyl)oxy)propan-2-yl)amino)phosphoryl)amino)-2-methylpropanoate] are within 1.5-fold of each other in EC50: 7 nM for the first, 9 nM for the second.

Going from `C[C@H](Cn1cnc2c(N)ncnc21)OCP(=O)(N[C@@](C)(Cc1ccccc1)C(=O)OCC1CCCCC1)N[C@@](C)(Cc1ccccc1)C(=O)OCC1CCCCC1` [Example 15, Bis(cyclohexylmethyl) 2,2′-((((((R)-1-(6-amino-9H-purin-9-yl)propan-2-yl)oxy)methyl)phosphoryl)bis(azanediyl))(2S,2'S)-bis(2-methyl-3-phenylpropanoate)] to `CCC[C@H]1CC[C@H](OC(=O)C(C)(C)NP(=O)(CO[C@H](C)Cn2cnc3c(N)ncnc32)NC(C)(C)C(=O)O[C@H]2CC[C@H](CCC)CC2)CC1` [Example 27], the EC50 rises from 17 nM to 26 nM (1.5-fold).

First: CCCCCCOC(=O)[C@@]1(NP(=O)(CO[C@H](C)Cn2cnc3c(N)ncnc32)N[C@]2(C(=O)OCCCCCC)C[C@H]2CC)C[C@H]1CC [Example 17, Dihexyl 1,1′-((((((R)-1-(6-amino-9H-purin-9-yl)propan-2-yl)oxy)methyl)phosphoryl)bis(azanediyl))(1R,1′R,2R,2′R)-bis(2-ethylcyclopropane-1-carboxylate)]
Second: CCCCCCOC(=O)C1(NP(=O)(CO[C@H](C)Cn2cnc3c(N)ncnc32)NC2(C(=O)OCCCCCC)CCC2)CCC1 [Example 19, Dihexyl 1,1′-(((((1-(6-amino-9H-purin-9-yl)propan-2-yl)oxy)methyl)phosphoryl)bis(azanediyl))(R)-bis(cyclobutane-1-carboxylate)]
The EC50 of the first is higher: greater than 500 nM for the first, 30 nM for the second.

`CCCCCCOC(=O)C(C)(C)NP(=O)(CO[C@H](C)Cn1cnc2c(N)ncnc21)NC1(C(=O)OCCCCCC)CCC1` (stereo partly drawn) [Example 18, Hexyl 1-((((((R)-1-(6-amino-9H-purin-9-yl)propan-2-yl)oxy)methyl)((1-(hexyloxy)-2-methyl-1-oxopropan-2-yl)amino)phosphoryl)amino)cyclobutane-1-carboxylate] and `CCCCCCOC(=O)C(C)(C)NP(=O)(CO[C@H](C)Cn1cnc2c(N)ncnc21)NC1(C(=O)OCCCCCC)CC1` (stereo partly drawn) [Example 20, Hexyl 1-((((((R)-1-(6-amino-9H-purin-9-yl)propan-2-yl)oxy)methyl)((1-(hexyloxy)-2-methyl-1-oxopropan-2-yl)amino)phosphoryl)amino)cyclopropane-1-carboxylate] are within 1.5-fold of each other in EC50: 13 nM for the first, 12 nM for the second.

`C[C@H](Cn1cnc2c(N)ncnc21)OCP(=O)(NC(C)(C)C(=O)O[C@H]1CC[C@H](C(F)(F)F)CC1)NC(C)(C)C(=O)O[C@H]1CC[C@H](C(F)(F)F)CC1` [Example 21, Bis(trans-4-(trifluoromethyl)cyclohexyl) 2,2′-((((((R)-1-(6-amino-9H-purin-9-yl)propan-2-yl)oxy)methyl)phosphoryl)bis(azanediyl))bis(2-methylpropanoate)] and `C[C@H](Cn1cnc2c(N)ncnc21)OCP(=O)(NC(C)(C)C(=O)O[C@H]1C[C@H](C(F)(F)F)C1)NC(C)(C)C(=O)O[C@H]1C[C@H](C(F)(F)F)C1` [Example 26, Bis(trans-3-(trifluoromethyl)cyclobutyl) 2,2′-((((((R)-1-(6-amino-9H-purin-9-yl)propan-2-yl)oxy)methyl)phosphoryl)bis(azanediyl))bis(2-methylpropanoate)] are within 1.5-fold of each other in EC50: 7 nM for the first, 6 nM for the second.

Going from `C[C@H](Cn1cnc2c(N)ncnc21)OCP(=O)(NC(C)(C)C(=O)OCCCCC(F)(F)F)NC(C)(C)C(=O)OCCCCC(F)(F)F` [Example 25, Bis(5,5,5-trifluoropentyl) 2,2′-(((((1-(6-amino-9H-purin-9-yl)propan-2-yl)oxy)methyl)phosphoryl)bis(azanediyl))(R)-bis(2-methylpropanoate)] to `CCCCCCOC(=O)C(C)(C)NP(=O)(CO[C@H](C)Cn1cnc2c(NC(C)=O)ncnc21)NC(C)(C)C(=O)OCCCCCC` [Example 28, Dihexyl 2,2′-(((((1-(6-acetamido-9H-purin-9-yl)propan-2-yl)oxy)methyl)phosphoryl)bis(azanediyl))(R)-bis(2-methylpropanoate)], the EC50 rises from 8 nM to 65 nM (8.1-fold). The first is the more potent here.

In the case of `CCCCCCOC(=O)C(C)(C)NP(=O)(CO[C@H](C)Cn1cnc2c(NC(=O)CCC)ncnc21)NC(C)(C)C(=O)OCCCCCC` [Example 29, Dihexyl 2,2′-(((((1-(6-butyramido-9H-purin-9-yl)propan-2-yl)oxy)methyl)phosphoryl)bis(azanediyl))(R)-bis(2-methylpropanoate)], the EC50 is reported as 16 nM.
